The record followed here is patent publication US4672057A, “Morpholino derivatives of daunorubicin and doxorubicin” (priority 1985, dated 1987).

For data set [1], the system named is P388 leukemia. As to the kind of experiment: Antitumor activity against P388 leukemia in CDF-1 mice. Format: in vivo. To be noted: for LTS (long term survivors, >60 days) / Toxic deaths / T/C %: ip on day 1; for Toxic deaths: autopsy findings; for T/C %: median survival time. On the procedure: (§1) The primary screening in vivo was carried out in CDF-1 mice bearing P388 ascetic leukemia (10^6 cells/mouse). […] The doxorubicin analogs II, IV, VI have been tested in C3H mice bearing the Gross leukemia injected iv (2×10^6 cell/mouse). […] Compound II has been studied on P388 leukemia cells resistant to doxorubicin (P388/DX) in vitro and in vivo. Cytotoxicity tests were carried out exposing the cells to various drug concentrations for 48 hrs. At the end of exposure period cells were counted with a coulter cell counter, and the ID50 (dose which gives 50% reduction of the cell number in comparison with untreated controls) was calculated. […] Compound II has been tested also in vivo in BDF-1 mice bearing P388/DX leukemia.
Antitumor activity against P388 leukemia
^a Median survival time; % over untreated controls
^b Long term survivors (>60 days)
^c Evaluated on the basis of autopsy findings on dead mice

Data set [2] concerns HeLa cells. As to the kind of experiment: Colony inhibition test against HeLa cells in vitro. Format: cell-based. As to conditions: Homo sapiens. The source says: The compounds have been tested in several experimental systems in order to ascertain their cytotoxicity and antitumor activity in experimental animals.
Colony inhibition test against HeLa cells
in vitro (treatment for 24 hrs)

Data set [3] concerns P388/DX leukemia cells. In words: Cytotoxicity test on doxorubicin-resistant P388 leukemia cells (P388/DX) in vitro. Format: cell-based. As to conditions: for activity on P388/DX leukemia cells: P388/DX cells in vitro, 48 hrs. On the procedure:
as §1
(§2) Effect on sensitive and doxorubicin-resistant
(§3) ^a Dose giving 50% reduction of cell number in comparison with
^c P388 leukemia cells resistant to doxorubicin

Data set [4] deals with Gross leukemia. As to the kind of experiment: Activity on Gross leukemia in C3H mice. The class given is in vivo. To be noted: for LTS (long term survivors, >60 days) / Toxic deaths / T/C %: iv on day 1; for Toxic deaths: autopsy findings; for T/C %: median survival time; for potency versus doxorubicin in Gross leukemia: iv on day 1 after tumor inoculation. On the procedure: as §1
Activity on Gross leukemia (IV-1)

Data set [5] concerns P388 leukemia cells. As to the kind of experiment: Cytotoxicity test on doxorubicin-sensitive P388 leukemia cells in vitro. To be noted: for IC50: Mus musculus. Format: cell-based. On the procedure:
as §1, §2, §3
^b P388 leukemia cells sensitive to doxorubicin

Data set [6] concerns P388/DX leukemia. In words: Effect on doxorubicin-resistant P388 leukemia (P388/DX) in vivo. As to conditions: for Toxic deaths: autopsy findings; for T/C: median survival time. Set-up: species or system BDF-1 mice. On the procedure: as §1
Effect on doxorubicin-resistant P388 leukemia

[7] abbreviates: compared with doxorubicin, P388 leukemia in mice.
[8] abbreviates: HeLa cells, colony inhibition, treatment for 24 hrs, read-out: ID50 (the source's name).

≈ marks a conversion by molar mass, not a printed value. Read-outs that look alike come from different tables or passages of the source.

As for `COc1cccc2c1C(=O)c1c(O)c3c(c(O)c1C2=O)C[C@@](O)(C(C)=O)C[C@@H]3O[C@H]1C[C@H](N2CCOC(OC)C2)[C@H](O)[C@H](C)O1` (stereo partly shown) [Compound I, 3'-deamino-3'-(2"-methoxy-4"-morpholinyl)daunorubicin], in data set [1] (0.13 mg/Kg), the “LTS (long term survivors, >60 days)” value is 0/10; the Toxic deaths is recorded as 0/10; the T/C % is on record as 136%. Besides, the IC50 in data set [2] (HeLa, 24 h, read-out: ID50) is 2 ng/mL (≈ 3.19 nM).
Take `COc1cccc2c1C(=O)c1c(O)c3c(c(O)c1C2=O)C[C@@](O)(C(=O)CO)C[C@@H]3O[C@H]1C[C@H](N2CCOC(OC)C2)[C@H](O)[C@H](C)O1` (stereo partly shown) [Compound II, 3'-deamino-3'-(2"-methoxy-4"-morpholinyl)doxorubicin]: in data set [1] (0.15 mg/Kg), the “LTS (long term survivors, >60 days)” value is recorded as 2/10; the Toxic deaths is 0/10; the T/C % was found to be 295%. Also, in data set [1] (setting [7]), the “efficacy versus the parent drug” value was “exhibits a major efficacy”, the “potency versus the parent drug” value was “more potent than the parent drug” and the “times more potent than the parent drug” value amounted to 60 times. In addition, in data set [3], the “activity on P388/DX leukemia cells” value was “very active”. In addition, the IC50 in data set [3] (P388/DX, 48 h, read-out: ID50) stood at 3 ng/mL (≈ 4.66 nM). Besides, in data set [4] (0.16 mg/Kg), the “LTS (long term survivors, >60 days)” value is 0/10; the Toxic deaths is 0/10; the T/C % was 150%. Further, the “potency versus doxorubicin in Gross leukemia” value (from here on “potency versus doxorubicin”) in data set [4] is “more potent than doxorubicin”. In addition, the IC50 in data set [2] (HeLa, 24 h, read-out: ID50) is 0.96 ng/mL (≈ 1.49 nM). In data set [5] (P388, 48 h, read-out: ID50), the IC50 turned out to be 0.3 ng/mL (≈ 0.466 nM). Besides, the “times more cytotoxic than doxorubicin” value in data set [5] (P388 leukemia cells) amounted to 40 times. Also, in data set [6] (0.075 mg/Kg), the “LTC (long term survivors, >60 days)” value is 0/10; the Toxic deaths was 0/10; the T/C stood at 100%. In addition, in data set [6] (0.15 mg/Kg), the “LTC (long term survivors, >60 days)” value is reported as 0/10; the Toxic deaths is 1/10; the T/C came out at 165%. The “activity in P388/DX leukemia in vivo” value in data set [6] (BDF-1 mice, 0.15 mg/Kg) was “very active”.
In the case of `COc1cccc2c1C(=O)c1c(O)c3c(c(O)c1C2=O)C[C@@](O)(C(C)=O)C[C@@H]3O[C@H]1C[C@H](N)[C@H](O)[C@H](C)O1` [Daunorubicin, daunorubicin], in data set [1] (2.9 mg/Kg), the “LTS (long term survivors, >60 days)” value is 0/10; the Toxic deaths is reported as 0/10; the T/C % is listed as 145%. For the same molecule, in data set [1] (4.4 mg/Kg), the “LTS (long term survivors, >60 days)” value was 0/10; the Toxic deaths is 1/10; the T/C % was 150%. Further, the IC50 in data set [2] (setting [8]) is 18.6 ng/mL (≈ 35.3 nM).
Regarding `COc1cccc2c1C(=O)c1c(O)c3c(c(O)c1C2=O)C[C@@](O)(C(=O)CO)C[C@@H]3O[C@H]1C[C@H](N)[C@H](O)[C@H](C)O1` [Doxorubicin, doxorubicin], the “LTS (long term survivors, >60 days)” value in data set [1] (6.6 mg/Kg) is given as 0/10; in data set [1] (10 mg/Kg) it was 1/10; in data set [4] (10 mg/Kg) it was 0/10; in data set [4] (13 mg/Kg) it was 0/10. The Toxic deaths in data set [1] (6.6 mg/Kg), in data set [1] (10 mg/Kg), in data set [4] (10 mg/Kg), in data set [4] (13 mg/Kg), in data set [6] (4.4 mg/Kg) and in data set [6] (6.6 mg/Kg) was 0/10 each time. Further, the T/C % was determined as 214% in data set [1] (6.6 mg/Kg), 214% in data set [1] (10 mg/Kg), 183% in data set [4] (10 mg/Kg) and 200% in data set [4] (13 mg/Kg). Further, the “activity on P388/DX leukemia cells” value in data set [3] was “inactive”. Besides, the IC50 in data set [3] (P388/DX resistant to doxorubicin, 48 hrs exposure, cell count, read-out: ID50 (the source's name)) was 1500 ng/mL (≈ 2760 nM); in data set [2] (setting [8]), 18 ng/mL (≈ 33.1 nM); in data set [5] (P388 sensitive to doxorubicin, 48 hrs exposure, cell count, read-out: ID50 (the source's name)) it was 12 ng/mL (≈ 22.1 nM). Also, the “LTC (long term survivors, >60 days)” value in data set [6] (4.4 mg/Kg) and in data set [6] (6.6 mg/Kg) was 0/10 throughout. Also, the figures for the T/C in data set [6] (4.4 mg/Kg) and in data set [6] (6.6 mg/Kg) were 110% and 100%, respectively.
In the case of `COc1cccc2c1C(=O)c1c(O)c3c(c(O)c1C2=O)C[C@@](O)(C(C)=O)C[C@@H]3O[C@H]1C[C@H](N2CC(C)OC(OC)C2)[C@H](O)[C@H](C)O1` (stereo partly shown) [III, 3'-deamino-3'-(2"-methoxy-6"-methyl-4"-morpholinyl)daunorubicin], the IC50 in data set [2] (HeLa, 24 h, read-out: ID50) stood at 1.8 ng/mL (≈ 2.81 nM).
For `COc1cccc2c1C(=O)c1c(O)c3c(c(O)c1C2=O)C[C@@](O)(C(=O)CO)C[C@@H]3O[C@H]1C[C@H](N2CC(C)OC(OC)C2)[C@H](O)[C@H](C)O1` (stereo partly shown) [IV, 3'-deamino-3'-(2"-methoxy-6"-methyl-4"-morpholinyl)doxorubicin], in data set [1] (0.2 mg/Kg), the “LTS (long term survivors, >60 days)” value is 0/10; the Toxic deaths is 0/10; the T/C % is listed as 173%. Also, in data set [1] (setting [7]), the “potency versus the parent drug” value is listed as “more potent than the parent drug”. In addition, in data set [4] (0.27 mg/Kg), the “LTS (long term survivors, >60 days)” value is on record as 0/10; the Toxic deaths is reported as 0/10; the T/C % came to 142%. Further, the “potency versus doxorubicin” value in data set [4] is “more potent than doxorubicin”. Besides, in data set [2] (HeLa, 24 h, read-out: ID50), the IC50 was determined as 0.32 ng/mL (≈ 0.487 nM).
For `COc1cccc2c1C(=O)c1c(O)c3c(c(O)c1C2=O)C[C@@](O)(C(C)=O)C[C@@H]3O[C@H]1C[C@H](N2CC(CO)OC(OC)C2)[C@H](O)[C@H](C)O1` (stereo partly shown) [V, 3'-deamino-3'-(2"-methoxy-6"-hydroxymethyl-4"-morpholinyl)daunorubicin], in data set [1] (2.0 mg/Kg), the “LTS (long term survivors, >60 days)” value is listed as 0/10; the Toxic deaths is 0/10; the T/C % was 145%. For the same molecule, in data set [1] (3.0 mg/Kg), the “LTS (long term survivors, >60 days)” value was 0/10; the Toxic deaths is on record as 0/10; the T/C % stood at 164%. The “activity versus daunorubicin (increase of mice life span)” value in data set [1] (same optimal dose, P388 leukemia in mice) was “more active than daunorubicin”. For the same molecule, in data set [2] (HeLa, 24 h, read-out: ID50), the IC50 is 10.5 ng/mL (≈ 16 nM).
Consider `COc1cccc2c1C(=O)c1c(O)c3c(c(O)c1C2=O)C[C@@](O)(C(=O)CO)C[C@@H]3O[C@H]1C[C@H](N2CC(CO)OC(OC)C2)[C@H](O)[C@H](C)O1` (stereo partly shown) [VI, 3'-deamino-3'-(2"-methoxy-6"-hydroxymethyl-4"-morpholinyl)doxorubicin], for which, in data set [1] (1.33 mg/Kg), the “LTS (long term survivors, >60 days)” value is 0/10; the Toxic deaths is reported as 0/10; the T/C % was 164%. In data set [1] (2.0 mg/Kg), the “LTS (long term survivors, >60 days)” value is 0/10; the Toxic deaths is listed as 0/10; the T/C % turned out to be 195%. Also, the “potency versus the parent drug” value in data set [1] (setting [7]) is recorded as “more potent than the parent drug”. Moreover, in data set [4] (2 mg/Kg), the “LTS (long term survivors, >60 days)” value was 0/10; the Toxic deaths is 0/10; the T/C % came to 150%. Moreover, the “potency versus doxorubicin” value in data set [4] is reported as “more potent than doxorubicin”. Moreover, the IC50 in data set [2] (HeLa, 24 h, read-out: ID50) was found to be 9 ng/mL (≈ 13.4 nM).

The term T/C denotes the ratio of treated to control.
